Assay results published in US20040171795A1, “Novel peptides” (priority 2000, published 2004).

Tests used:
[1] = Measurement of CD spectrum; assay type: physicochemical; details: aqueous solution solely containing an inorganic salt, pH 7, 35° C.
Procedure: The peptide dissolved in 10 mM phosphate buffer (pH=7) containing 50 mM NaCl was evaluated for its CD spectrum in the presence and in the absence of 5 mM SDS by using a circular dichroism spectrophotometer (J-500A, manufactured by JASCO). The cell length was 1 mm. The measurement was conducted at 35° C. for 6 times in total. FIGS. 7 to 9 are respectively views showing mean residue ellipticity in CD spectroscopy of the peptide of SEQ ID NO:1, the peptide of SEQ ID NO:4 and the peptide of SEQ ID NO:16. As evident in FIGS. 7 to 9, the mean residue ellipticity obtained in the presence of SDS was the so called W curve and local minimums were found in the areas at the wavelength of 205 to 210 nm and 220 to 225 nm, and α-helix structure was thereby confirmed.

[2] = Affinity for phosphatidyl serine (EIA, inhibition of human Factor VIII binding); details: class of IC50 for inhibiting human Factor VIII binding, 5% BSA
Procedure: The specific affinity of the peptide for phosphatidyl serine was evaluated by measuring activity of the peptide for inhibiting the binding of the human Factor VIII to phosphatidyl serine by using human Factor VIII which is known to bind to phosphatidyl serine but not to phosphatidyl choline in the presence of serum albumin. To be more specific, 100 μL of ethanol solution containing 10 μg/mL of phospholipids at a phosphatidyl serine (manufactured by SIGMA): phosphatidyl choline (manufactured by SIGMA) ratio of 3:7 was added to the wells of a 96 well plate (Immulon I, manufactured by Dynatech), and exsiccated by using a centrifugal evaporator (EC-95C, manufactured by Sakuma Seisakusho) at 40° C. for 40 minutes. 200 μL each of TBS (10 mM Tris-HCl (pH 7.4) containing 1% bovine serum albumin (BSA Fraction V, hereinafter referred to as BSA, manufactured by Seikagaku Corporation) and 0.9% (W/V) NaCl solution were added to each well, and the wells were blocked by allowing the plate to stand at 37° C. for 2.5 hours. After washing the plate with water, 100 μL of TBS solution supplemented with 5% BSA mixed with human Factor VIII (manufactured by American Diagnostica) at a final concentration 1 μg/mL and the peptide of predetermined dose prepared in Example 1 was added to each well, and the reaction was allowed to take place at 4° C. for 24 hours.
After the completion of the reaction, the human Factor VIII that became bound to the phosphatidyl serine was measured by enzyme immunoassay (EIA) in accordance with the general procedure described in a book (“Enzyme Immunoassay (3rd ed.)”, Eiji Ishikawa et al., Igaku-Shoin, 1987). To be more specific, the measurement was conducted by using anti-human Factor VIII mouse monoclonal antibody (ESH8, manufactured by American Diagnostica) for the primary antibody, horseradish peroxidase-labeled anti-mouse IgG antibody (P0260, manufactured by Daco) for the secondary antibody, and tetramethylbenzidine for the chromogenic substrate, and measuring the absorption at a wavelength of 450 nm by using a reference wavelength of 630 nm on a spectrophotometer (NJ-2100, manufactured by Intermed).
Intensity of the affinity of the peptide for the phosphatidyl serine was evaluated by using the value obtained by subtracting the absorption of the well having no human Factor VIII added thereto from the absorption of the well having only the human Factor VIII added thereto as the control value (100%), and designating the peptide concentration at which the value 0.5 was obtained when the value obtained by subtracting the absorption of the well having only the peptide added thereto from the absorption of the well having a mixture of the human Factor VIII and the peptide added thereto were divided by the control value as the IC50 value, and evaluating the intensity to be ++ when the IC50 value was up to 1 μM, and +when the intensity was more than 1 μM but not more than 10 μM. It is to be noted that the specific affinity was evaluated to be none when the intensity was 10 μM or more.

plasmid (pUC119) = assay: Binding ability to plasmid (electrophoresis); details: charge ratio (+/−ratio) of 3
Procedure: The plasmid prepared by the procedure described in Example 7 (pUC119; final concentration, 20 μg/mL) and the peptides prepared by the procedure described in Examples 1 to 3 were mixed in 20 mM Tris HCl buffer (pH=7.2) containing 150 mM NaCl at a charge ratio (+/−ratio) of 0 to 3, and the mixture was allowed to stand at 37° C. for 30 minutes. Electrophoresis was then conducted on 1% agarose gel to thereby determine the binding of the plasmid and the peptide.
The +/−ratio (charge ratio) indicated in FIG. 11 is the ratio of the number (+) of the positively-charged groups in the peptide to the number (−) of negatively-charged groups in the plasmid. As evident in FIG. 11, the amount of plasmid that became bound to the peptide increased with the increase in the charge ratio (+/−ratio), and the plasmid was fully bound to the peptide at a charge ratio (+/−ratio) of 3. The peptides of SEQ ID NO:2 to SEQ ID NO:24 were also found to bind at a charge ratio (+/−ratio) of 3.

SEQ ID NO: 1: peptide having the amino acid sequence of SEQ ID NO:1, made by solid phase synthesis (TRYLRIHPRSWVHQIALRLRYLRIHPRSWVHQIALRS; synthetic peptide using an automatic peptide synthesizer)
α-helix structure in CD spectrum in the absence of SDS [1]: do not take α-helix structure
IC50 [2]: < 1000 nM
binding of plasmid to the peptide (plasmid (pUC119)): fully bound
